Test results: patent publication US20070269379A1, “Penetration Enhancer Combinations for Transdermal Delivery” (priority 2003, published 2007)

What was measured:
[1] = system: hairless rat skin; test: Skin observation and histology after patch application in hairless rats; assay type: in vivo; conditions: skin excised after removing the patch, hematoxylin staining
[2] = system: EpiDerm, a cell culture of normal human derived epidermal keratinocytes; test: MTT uptake assay of irritation potential on EpiDerm cultures; assay type: cell-based; conditions: 4 hrs exposure, vehicle 1:1 PBS:EtOH
Method: Experiments to assess irritation potential were performed on the binary pairs of library CPEs at the compositions that yielded the maximum ER value in the screening experiments using the methyl thiazol tetrazolium (MTT) uptake assay. Irritation potential was estimated using EpiDermTM (MatTek Co., MA, USA, […].com), a cell culture of normal human derived epidermal keratinocytes. EpiDermTM cultures were stored and handled according to the standard protocol MTT-ET-50 (MatTek Co., MA, USA, […].com). To study the effect of the test formulations on cell viability, cell cultures were exposed to 10 μl of each test formulation for 4 hrs. Each test formulation was analyzed in duplicate. At the end of 4 hrs the assay medium was removed and stored aside at -70° C. for Interleukin-1α assay. The cell cultures were rinsed clear of the test formulations using PBS and incubated with 300 μL of MTT reagent (MatTek Co., MA, USA) for 3 hrs at 37° C. and 5% CO2. At the end of the incubation period the cell cultures were treated with 2 ml of extracting media (provided by MatTek Co) for 2 hrs. 200 μL of this extraction media was then sampled and its optical density (or absorbence) was measured at 570 nm wavelength. The optical absorbance data was then used to calculate the percentage cell viability as recommended in the MTT-ET-50 protocol.

| Compound | histology: state of the stratum corneum [1] | irritation potential (IP) [2] |
| --- | --- | --- |
| CCCCCCCCCCCCOS(=O)(=O)[O-].[Na+] [SLS, Sodium Lauryl Sulfate] | completely detached | – |
| CCCCCCCC/C=C\CCCCCCCC(=O)O [oleic acid] | – | 14.5% |
